Blank lines part the entries; values can stand above or below the compound they belong to.
Experiments:
[1] = Example 3 healthy subjects QD vs BID: KAR5417 plasma levels; assay type: in vivo, human
Experimental: (§1) 24 healthy subjects received 800 mg total daily oral doses of RVT-1201 or placebo (PBO), either as single (800 mg QD) or divided (400 mg BID) doses for 14 days across two cohorts (9 active: 3 PBO per cohort). KAR5417 plasma levels and change from Baseline (BSL) PD biomarker data (plasma and urine 5-HIAA) were compared between QD and BID cohorts at day 14. Safety and tolerability were assessed via adverse event (AE) monitoring and laboratory, vital signs and ECG assessments.

[2] = test system: serotonin biosynthesis; assay: Example 3 healthy subjects QD vs BID: plasma and urine 5-HIAA; assay type: in vivo, human; details: day 14, change from baseline
Experimental: as §1

[3] = test system: serotonin biosynthesis; assay: Example 2 healthy human subjects: plasma 5-HIAA; assay type: in vivo; details: 400 mg BID, Day 1 to Day 14
Experimental: (§2) Mean change in plasma 5-HIAA may be about −53% from Day 1 to Day 14, whereas placebo may be about +26%. Interpolation of KAR5417 AUC between 400 mg and 800 mg BID regimens may show 500-600 mg BID in humans will achieve the target exposure associated with efficacy in rat models.

[4] = Example 2 healthy human subjects: safety and tolerability; assay type: in vivo; details: doses required to achieve clinically-relevant AUC
Experimental: (§3) Healthy human subjects (n=˜120) may receive RVT-1201.
as §2

[5] = test system: PAH; assay: monocrotaline prevention model of PAH; assay type: in vivo; details: rat, oral 100 mg/kg/day
[6] = test system: serotonin biomarkers; assay: divided dose pharmacodynamic studies in rats (QD vs BID vs TID); assay type: in vivo, rat
Experimental: (§4) TPH1 is the rate-limiting enzyme for peripheral biosynthesis of serotonin (5HT), which has been implicated as a causative factor in PAH. RVT-1201 decreased pulmonary vessel wall thickness in 2 PAH rodent models indicating potential to halt/reverse pulmonary remodeling in humans. The median effective dose (100 mg/kg QD) in PAH rat models yielded a ˜35% reduction in 5-HT biosynthesis (based on urinary 5-HIAA, a metabolite of 5HT). […] The example compares reductions in 5-HIAA levels following QD and BID dosing in healthy subjects.

[7] = test system: PAH; assay: SUGEN-hypoxia treatment model for established PAH; assay type: in vivo; details: rat, oral 100 mg/kg/day
[8] = Example 2 healthy human subjects: pharmacokinetics; assay type: in vivo
Experimental: as §3, §2

[9] = test system: serotonin biosynthesis; assay: rat serotonin biomarkers (serum serotonin, urinary 5-HIAA); assay type: in vivo; details: 30 to 300 mg/kg/day, dose-dependent
Experimental: RVT-1201 (30 to 300 mg/kg/day) may yield a dose-dependent reduction in rat serum serotonin (−27% to −96%) and 24 h urinary output of 5-HIAA (−45% to −56%). HIAA is a metabolite that reflects total serotonin biosynthesis.

[10] = Example 3 healthy subjects QD vs BID: safety and tolerability; assay type: in vivo, human
Experimental: as §1

[11] = test system: PAH; assay: PAH rodent models (Example 3 background); assay type: in vivo, rat
Experimental: as §4

[12] = polymorph stability and shelf life; assay type: physicochemical; details: particularly at temperatures of less than 95° C.
Source text: The above-referenced compound can be used to prevent or treat PAH/APAH in either an amorphous or crystalline form. Two different polymorph crystalline forms are identified by x-ray powder diffraction patterns set forth in FIG. 1 (Form 3) and FIG. 2 (Form 1) as well as Tables 1 and 2 (Form 3) and Tables 3 and 4 (Form 1).

- KAR5417 mean pAUC0-24 ([1]; RVT-1201 400 mg BID oral, day 14): 10400 ng*h/mL
- AUC(0-t) ([1]; human, plasma, RVT-1201 800 mg QD oral, day 14, read-out: KAR5417 mean AUC0-24): 9180 ng·h/mL
Compound: Nc1nc(O[C@H](c2ccc(Cl)cc2-c2ccccc2)C(F)(F)F)cc(N2CCC3(CC2)CN[C@H](C(=O)O)C3)n1 [KAR5417, (S)-8-(2-amino-6-((R)-1-(5-chloro-[1,1′-biphenyl]-2-yl)-2,2,2-trifluoroeth-oxy)pyrimidin-4-yl)-2,8-diazaspiro[4.5]decane-3-carboxylic acid]

Compound: CCOC(=O)[C@@H]1CC2(CCN(c3cc(O[C@H](c4ccc(Cl)cc4-c4ccccc4)C(F)(F)F)nc(N)n3)CC2)CN1 [RVT-1201, (S)-ethyl 8-(2-amino-6-((R)-1-(5-chloro-[1,1′-biphenyl]-2-yl)-2,2,2-trifluoroethoxy)pyrimidin-4-yl)-2,8-diazaspiro[4.5]decane-3-carboxylate]
- mean (±SD) reduction in plasma 5-HIAA ([2]; 400 mg BID): 49.9 (9.52) %
- mean (±SD) reduction in urinary 5-HIAA ([2]; 400 mg BID): 55.5 (10.3) %
- mean (±SD) reduction in plasma 5-HIAA ([2]; 800 mg QD): 40.0 (6.32) %
- mean (±SD) reduction in urinary 5-HIAA ([2]; 800 mg QD): 45.8 (6.59) %
- mean change in plasma 5-HIAA [3]: about −53%
- tolerability [4]: well tolerated
- block or ameliorate PAH [5]: may block or ameliorate PAH
- QD dosing versus more frequent dosing, lowering of 5-HT ([6]; healthy rats, QD vs BID vs TID): as effective as more frequent dosing
- once daily administration versus BID or TID regimens ([6]; rats, 75 mg/kg/day): comparable to BID or TID regimens
- serotonin reduction ([6]; rats, 75 mg/kg/day, divided dose studies): ~65%
- block or ameliorate PAH [7]: may block or ameliorate PAH
- human dose achieving target exposure associated with efficacy in rat models ([8]; BID, interpolation of KAR5417 AUC between 400 mg and 800 mg BID regimens): 500 to 600 mg
- AUC following single doses versus dose ([8]; healthy human subjects, standard meals, single doses 200 to −1200 mg): proportional to dose
- reduction in 24 h urinary output of 5-HIAA [9]: −45% to −56%
- reduction in rat serum serotonin [9]: −27% to −96%
- overall incidence of GI-related AEs ([10]; QD group (800 mg QD), 14 days): 78%
- tolerability ([10]; both dose regimens (800 mg QD, 400 mg BID), 14 days): generally well-tolerated
- overall incidence of GI-related AEs ([10]; divided dose group (400 mg BID), 14 days): 33%
- treatment-related withdrawals ([10]; either cohort): no treatment-related withdrawals
- pulmonary vessel wall thickness ([11]; 2 PAH rodent models): decreased
- median effective dose ([11]; PAH rat models, QD): 100 mg/kg
- reduction in 5-HT biosynthesis (based on urinary 5-HIAA) ([11]; PAH rat models, at median effective dose 100 mg/kg QD): ~35%

Compound: CCOC(=O)[C@@H]1CC2(CCN(c3cc(O[C@H](c4ccc(Cl)cc4-c4ccccc4)C(F)(F)F)nc(N)n3)CC2)CN1 [crystalline Form 3, (S)-ethyl 8-(2-amino-6-((R)-1-(5-chloro-[1,1′-biphenyl]-2-yl)-2,2,2-trifluoroethoxy)pyrimidin-4-yl)-2,8-diazaspiro[4.5]decane-3-carboxylate]
- stability and shelf life compared to crystalline Form 1 [12]: substantially greater stability and shelf life
